The test system of assay [1] is LC3BII accumulation in HeLa cells. The assay can be described thus: LC3BII accumulation in the presence of EBSS and HCQ (immunoblot). The class given is cell-based. As to conditions: Homo sapiens, EBSS and HCQ (25 μM), read-out: EC50 prevention of LC3BII accumulation. How it is done: HeLa cells were treated with different concentrations of inhibitors for 16 hours. For all immunofluorescence experiments, cells were fixed in -20 °C methanol for 5 minutes or 3.7% (v/v) formaldehyde in phosphate-buffered saline (PBS) for 20 minutes. For LC3B staining, cells were fixed in -20 °C methanol. For EEA1 and LAMP1 staining, cells were fixed in PBS+ formaldehyde. Cells were then permeabilized with TBSTx (0.1% Triton X-100), blocked in AbDil (TBSTx + 2% BSA + 0.1% NaN3), and probed with primary and secondary antibodies diluted in AbDil. Cells were rinsed thoroughly with TBSTx and mounted by anti-fade prolong Gold with DAPI. Images were taken using a Leica DMI4000B fluorescent microscope. All experiments were repeated at least three times). […] Cells were lysed in lysis buffer. P62, LC3B, and GAPDH antibodies were used for immunoblotting.

The subject of assay [2] is MV4-11. The assay is described as follows: Cell cycle analysis. The class given is cell-based. As to conditions: MV4-11, 48 h treatment.
A further assay has as its system OCI-AML-3. The assay is described as follows: Colony formation (colonogenic assay). In kind it is cell-based. As to conditions: Homo sapiens.
For assay [3], the system named is OCI-AML-2. The assay is described as follows: Autophagy markers LC3BII and p62 (immunoblotting). The class given is cell-based. (In general: Immunoblotting shows a protein as a band on a membrane.)
Assay [4] relates to OCI-AML-2. The assay is described as follows: Induction of apoptosis (PARP cleavage). As to conditions: OCI-AML-2, evident at 3 μM to 10 μM. The class given is cell-based.
The next assay has as its target T1, PIK3C2A (Homo sapiens, UniProt O00443).
T1 construct: purchased Invitrogen
The assay is described as follows: ADP-Glo biochemical assay. As to conditions: 50 μM ATP, read-out: IC50 against PIK3C2A. On the technique in general: ADP-Glo first removes unused ATP, then detects ADP through luciferase.

Another assay deals with T2, PIK3C2B (Homo sapiens, UniProt O00750).
T2 construct: purchased Invitrogen
T2 sequence (O00750 whole entry): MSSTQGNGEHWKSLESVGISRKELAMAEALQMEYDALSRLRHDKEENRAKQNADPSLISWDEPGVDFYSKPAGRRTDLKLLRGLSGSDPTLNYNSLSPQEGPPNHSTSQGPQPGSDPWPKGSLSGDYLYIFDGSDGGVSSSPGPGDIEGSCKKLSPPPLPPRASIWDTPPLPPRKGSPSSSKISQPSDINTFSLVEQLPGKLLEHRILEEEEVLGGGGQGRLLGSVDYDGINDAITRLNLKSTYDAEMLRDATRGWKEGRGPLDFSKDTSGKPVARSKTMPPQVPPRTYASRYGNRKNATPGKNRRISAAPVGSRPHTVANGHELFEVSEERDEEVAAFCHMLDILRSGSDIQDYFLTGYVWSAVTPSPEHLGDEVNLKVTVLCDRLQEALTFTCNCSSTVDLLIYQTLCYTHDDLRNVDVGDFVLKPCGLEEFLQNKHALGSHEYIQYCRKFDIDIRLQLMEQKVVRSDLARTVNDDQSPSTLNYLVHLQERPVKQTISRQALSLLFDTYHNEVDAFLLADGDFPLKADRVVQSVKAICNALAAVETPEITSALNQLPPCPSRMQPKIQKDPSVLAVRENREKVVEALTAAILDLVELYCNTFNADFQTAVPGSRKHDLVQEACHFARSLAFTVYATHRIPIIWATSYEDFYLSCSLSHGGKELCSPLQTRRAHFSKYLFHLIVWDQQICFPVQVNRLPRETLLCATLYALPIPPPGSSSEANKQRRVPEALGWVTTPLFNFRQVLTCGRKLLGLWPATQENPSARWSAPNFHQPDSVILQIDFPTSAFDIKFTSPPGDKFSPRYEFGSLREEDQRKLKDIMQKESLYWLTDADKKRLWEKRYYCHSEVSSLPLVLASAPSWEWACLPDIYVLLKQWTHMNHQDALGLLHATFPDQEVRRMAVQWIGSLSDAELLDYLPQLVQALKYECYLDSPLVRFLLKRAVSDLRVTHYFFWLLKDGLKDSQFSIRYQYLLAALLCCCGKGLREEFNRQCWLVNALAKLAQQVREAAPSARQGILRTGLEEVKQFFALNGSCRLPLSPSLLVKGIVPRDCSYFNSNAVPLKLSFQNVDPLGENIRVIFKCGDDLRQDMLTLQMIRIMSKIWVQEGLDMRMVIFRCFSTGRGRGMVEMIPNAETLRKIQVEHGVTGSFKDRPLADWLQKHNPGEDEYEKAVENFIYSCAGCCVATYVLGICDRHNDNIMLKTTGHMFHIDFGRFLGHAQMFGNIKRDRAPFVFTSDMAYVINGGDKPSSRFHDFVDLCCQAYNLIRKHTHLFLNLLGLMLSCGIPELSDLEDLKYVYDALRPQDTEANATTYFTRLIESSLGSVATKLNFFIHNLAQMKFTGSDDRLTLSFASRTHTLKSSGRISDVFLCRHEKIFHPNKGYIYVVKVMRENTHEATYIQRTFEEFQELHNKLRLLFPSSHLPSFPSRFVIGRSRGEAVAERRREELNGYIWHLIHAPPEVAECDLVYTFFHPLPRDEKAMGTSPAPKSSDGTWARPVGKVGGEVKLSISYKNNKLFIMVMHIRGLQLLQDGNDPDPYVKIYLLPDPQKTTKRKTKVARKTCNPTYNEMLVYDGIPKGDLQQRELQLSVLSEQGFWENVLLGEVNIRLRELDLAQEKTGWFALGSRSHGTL
The assay can be described thus: ADP-Glo biochemical assay. As to conditions: 50 μM ATP, read-out: IC50 against PIK3C2B.

The subject of the next assay is NB4. The assay is described as follows: Anti-proliferative effect. In kind it is cell-based. As to conditions: Homo sapiens, read-out: GI50 NB4.
Another assay addresses T3, PI3Kβ (Homo sapiens, UniProt P42338).
T3 construct: purchased Sigma
The assay is described as follows: ADP-Glo biochemical assay. As to conditions: purified protein, 10 μM ATP, read-out: IC50 against PI3Kβ (PIK3CB).

The next assay has as its system NOMO-1. The assay is described as follows: Anti-proliferative effect. The class given is cell-based. As to conditions: Homo sapiens, NOMO-1, read-out: GI50 NOMO-1.
In the next assay the target is T4, PI3Kα (Homo sapiens, UniProt P42336).
T4 construct: purchased Invitrogen
T4 sequence (P42336 whole entry): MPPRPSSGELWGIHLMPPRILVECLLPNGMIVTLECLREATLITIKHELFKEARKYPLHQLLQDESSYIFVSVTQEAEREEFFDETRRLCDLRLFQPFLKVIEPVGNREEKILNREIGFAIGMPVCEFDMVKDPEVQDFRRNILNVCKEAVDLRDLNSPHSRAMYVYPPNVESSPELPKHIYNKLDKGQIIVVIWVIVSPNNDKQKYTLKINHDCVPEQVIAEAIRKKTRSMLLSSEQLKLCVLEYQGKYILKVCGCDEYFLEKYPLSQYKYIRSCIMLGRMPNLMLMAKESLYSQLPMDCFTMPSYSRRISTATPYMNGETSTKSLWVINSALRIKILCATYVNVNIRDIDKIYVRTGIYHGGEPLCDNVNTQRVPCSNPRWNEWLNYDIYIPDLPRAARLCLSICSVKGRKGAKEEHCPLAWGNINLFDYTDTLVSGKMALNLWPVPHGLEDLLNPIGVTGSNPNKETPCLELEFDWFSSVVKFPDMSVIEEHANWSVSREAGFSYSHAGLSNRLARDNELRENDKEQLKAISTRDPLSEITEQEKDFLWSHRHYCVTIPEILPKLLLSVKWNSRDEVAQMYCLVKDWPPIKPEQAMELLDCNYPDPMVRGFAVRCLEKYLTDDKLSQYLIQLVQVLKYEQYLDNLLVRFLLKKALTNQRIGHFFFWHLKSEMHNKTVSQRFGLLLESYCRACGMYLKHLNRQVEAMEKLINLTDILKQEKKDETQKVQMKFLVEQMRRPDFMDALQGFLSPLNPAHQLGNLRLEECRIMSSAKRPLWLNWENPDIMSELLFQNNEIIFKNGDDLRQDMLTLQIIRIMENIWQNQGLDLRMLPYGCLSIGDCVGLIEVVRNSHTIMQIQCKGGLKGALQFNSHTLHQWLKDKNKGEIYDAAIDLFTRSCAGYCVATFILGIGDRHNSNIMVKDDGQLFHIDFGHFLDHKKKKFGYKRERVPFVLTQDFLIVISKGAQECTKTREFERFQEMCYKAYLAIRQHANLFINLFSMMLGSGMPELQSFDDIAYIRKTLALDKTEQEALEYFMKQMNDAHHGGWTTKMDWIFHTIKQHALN
T4 sequence (P27986 whole entry partner): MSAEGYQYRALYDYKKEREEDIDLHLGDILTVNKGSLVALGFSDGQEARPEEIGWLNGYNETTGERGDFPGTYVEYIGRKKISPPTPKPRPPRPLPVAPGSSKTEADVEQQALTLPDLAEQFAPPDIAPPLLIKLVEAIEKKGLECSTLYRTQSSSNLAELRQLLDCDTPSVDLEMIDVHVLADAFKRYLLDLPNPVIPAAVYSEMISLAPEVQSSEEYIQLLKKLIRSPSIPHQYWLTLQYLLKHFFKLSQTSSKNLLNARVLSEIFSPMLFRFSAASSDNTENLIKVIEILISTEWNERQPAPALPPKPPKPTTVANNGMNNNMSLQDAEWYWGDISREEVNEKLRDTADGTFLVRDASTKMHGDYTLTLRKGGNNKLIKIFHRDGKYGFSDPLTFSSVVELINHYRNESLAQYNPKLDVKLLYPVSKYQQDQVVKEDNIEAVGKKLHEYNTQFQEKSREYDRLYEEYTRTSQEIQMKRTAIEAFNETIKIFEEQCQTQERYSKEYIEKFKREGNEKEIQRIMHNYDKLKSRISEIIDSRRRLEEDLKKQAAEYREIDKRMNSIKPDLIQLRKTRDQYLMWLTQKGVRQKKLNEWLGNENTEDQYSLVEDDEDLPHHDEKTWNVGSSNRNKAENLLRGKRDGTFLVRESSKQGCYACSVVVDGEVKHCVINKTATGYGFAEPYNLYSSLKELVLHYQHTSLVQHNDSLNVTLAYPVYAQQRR
The assay is described as follows: ADP-Glo biochemical assay. As to conditions: purified protein, 10 μM ATP, read-out: IC50 against PI3Kα (PIK3CA).

Assay [5] concerns MV4-11. The assay can be described thus: Autophagy markers LC3BII and p62 (immunoblotting). The class given is cell-based.
Another assay relates to pERK in MEC-2 cells. The assay can be described thus: pERK immunoblotting. The class given is cell-based. From the text: The following antibodies were purchased from Cell Signaling Technology: Akt(#4691), Phospho-Akt(Thr308)(#4056), Phospho-Akt(Ser473)(#4060), GAPDH, GSK-3β(#9315), Phospho-GSK-3β(#9323), FoxO1(#2880), Phospho-FoxO1 (Thr24)/FoxO3a(Thr32)/FoxO4(Thr28)(#2599), PRAS40(#2691), Phospho-PRAS40 (Thr246)(#2997), 4E-BP1(#9644), p70 S6K(#2708), Phospho-p70 S6K (Thr389)(#9234). SQSTM1/p62 (D5E2)(#8025), LC3B(#12513). PARP(#9532), Caspase-3(#9665), Phospho-p44/42 MAPK (Erk1/2) (Thr202/Tyr204)(#4377), p44/42 MAPK (Erk1/2) (#4695), Phospho-NF-ΚB P65 (Ser 536)(#3033), NF-ΚB P65(#4764). Lysophosphatidic Acid (#sc-201053, Santa Cruz), Recombinant Human PDGF-BB (#220-BB, R&D), Recombinant Human C5a (Peprotech, #300-70), goat anti-IgM (#5C07615, Meridian). LC3B antibody (#3868, CST). Tubulin antibody (#8035, Santa Cruz). EEA1 antibody (#610456, BD Bioscience) and LAMP1 antibody (#24170, Abcam). Secondary antibodies, Alexa488-anti-mouse, Alexa594-anti-rabbit and Prolong gold mounting medium with DAPI were purchased from Invitrogen.

The target of a further assay is T5, PI4KA (Homo sapiens, UniProt P42356).
T5 construct: purchased Invitrogen
The assay can be described thus: ADP-Glo biochemical assay. As to conditions: 50 μM ATP, read-out: IC50 against PI4KA.

The target in another assay is PI3Kδ (Homo sapiens, UniProt O00329). The assay can be described thus: biochemical.
Assay [6] deals with MV4-11. The assay is described as follows: Anti-proliferative effect. The class given is cell-based. As to conditions: AML (FLT3-ITD).
Assay [7] deals with OCI-AML-2. The assay is described as follows: Colony formation (colonogenic assay). The class given is cell-based. As to conditions: Homo sapiens, OCI-AML2.
Another assay has as its system MOLM-14. The assay can be described thus: Anti-proliferative effect. As to conditions: AML (FLT3-ITD). In kind it is cell-based.

The values that follow come from PMC5288202, “Simultaneous inhibition of Vps34 kinase would enhance PI3Kδ inhibitor cytotoxicity in the B-cell malignancies” (Oncotarget, 2016).

Broadly, the EC50 is the concentration at which the effect is half-maximal. Broadly, the IC50 is the point on the concentration scale where inhibition reaches its midpoint. As a reminder, the GI50 is the concentration at which growth is held to half of that of the control.

T3 sequence (P42338 whole entry): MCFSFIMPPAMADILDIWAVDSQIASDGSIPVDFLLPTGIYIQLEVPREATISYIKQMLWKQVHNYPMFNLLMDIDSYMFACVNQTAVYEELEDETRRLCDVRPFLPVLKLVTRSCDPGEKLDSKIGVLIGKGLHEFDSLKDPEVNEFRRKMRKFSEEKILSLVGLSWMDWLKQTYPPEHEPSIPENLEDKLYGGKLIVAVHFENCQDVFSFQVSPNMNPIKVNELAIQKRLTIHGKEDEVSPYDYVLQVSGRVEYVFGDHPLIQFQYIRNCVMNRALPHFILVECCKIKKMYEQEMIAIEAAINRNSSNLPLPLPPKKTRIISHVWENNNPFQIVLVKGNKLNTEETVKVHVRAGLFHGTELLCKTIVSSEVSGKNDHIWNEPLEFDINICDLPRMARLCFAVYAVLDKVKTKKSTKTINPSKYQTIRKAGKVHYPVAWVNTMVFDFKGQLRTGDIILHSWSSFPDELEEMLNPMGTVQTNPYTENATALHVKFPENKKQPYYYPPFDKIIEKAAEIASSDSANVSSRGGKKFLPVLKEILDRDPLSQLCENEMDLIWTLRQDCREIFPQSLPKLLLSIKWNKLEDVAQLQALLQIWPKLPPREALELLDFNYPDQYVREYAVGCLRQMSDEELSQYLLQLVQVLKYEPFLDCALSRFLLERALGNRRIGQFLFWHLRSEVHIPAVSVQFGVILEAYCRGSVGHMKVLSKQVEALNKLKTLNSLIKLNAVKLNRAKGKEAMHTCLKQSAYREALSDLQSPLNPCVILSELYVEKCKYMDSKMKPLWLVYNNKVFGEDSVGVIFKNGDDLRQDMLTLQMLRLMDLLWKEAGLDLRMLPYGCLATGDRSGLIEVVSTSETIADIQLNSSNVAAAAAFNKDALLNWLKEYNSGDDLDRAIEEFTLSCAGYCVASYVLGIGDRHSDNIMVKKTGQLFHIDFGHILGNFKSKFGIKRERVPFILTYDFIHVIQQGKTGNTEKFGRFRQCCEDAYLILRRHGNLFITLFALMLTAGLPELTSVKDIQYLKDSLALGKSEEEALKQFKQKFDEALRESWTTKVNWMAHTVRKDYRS
T3 sequence (P27986 whole entry partner): as the sequence (P27986 whole entry partner) above
Procedure for PI3Kδ: The activities of PI3Kα, PI3Kβ, PI3Kδ, PI3Kγ, PI3KC2α, PI3KC2β, Vps34, PI4Kα and PI4Kβ were determined by using ADP-Glo assay, a fluorescence-based immunoassay that measures kinase activity in terms of the amount of ADP produced. A kinase titration was performed to determine the concentration. The amount of recombinant kinases was optimized to keep the reaction velocity within the linear range, to obtain an adequate difference between the resulting signals of sample in/out the presence of enzyme. The optimized enzyme concentrations for evaluating the inhibitory activities of compounds were chosen as follows: 0.16 μg/ml, 6.0 μg/ml, 1.0 μg/ml, 5.0 μg/ml, 5.0 μg/ml, 10.0 μg/ml, 1.2 μg/ml, 1.2 μg/ml and 1.0 μg/ml for PI3Kα, PI3Kβ, PI3Kδ, PI3Kγ, PI3KC2α, PI3KC2β, Vps34, PI4Kα and PI4Kβ, respectively. The ATP concentration was optimized, 10 μM ATP for PI3Kα and PI3Kβ, and 50 μM ATP for detection of the other seven kinases. The PI3Kα, PI3Kβ, PI3Kδ, PI3Kγ, PI3KC2α, PI3KC2β kinase reactions were carried out in 10 μl volume in a 384-well plate in the kinase reaction buffer containing 50 mM Hepes pH 7.5, 3 mM MgCl2, 1 mM EGTA, 1 mM NaCl, 0.03% CHAPS and 2 mM DTT. […] 10 μl kinase detection reagent was dded and incubated for 30 min at room temperature, before the luminescence signal was read with an envision PerkinElmer plate reader.

As for `Cc1nc(NC(=O)CN)sc1-c1cnc(Cl)c(NS(=O)(=O)c2ccc(C(C)(C)C)cc2)c1` [PI3KD/V-IN-01, 2-amino-N-(5-(5-(4-tert-butylphenylsulfonamido)-6-chloropyridin-3-yl)-4-methylthiazol-2-yl)acetamide], the EC50 in assay [1] was determined as 413 nM; in the assay on OCI-AML-3, 1000 nM; in the assay on OCI-AML-2 [7] it was 145 nM. In addition, the cell cycle progression entry in the assay with MV4-11 [2] was “arrested in the G0/G1 phase”. Further, the “levels of the autophagy markers, LC3BII and p62” value is “concentration-dependent increase” in the assay with OCI-AML-2 [3] and “not observed” in the assay with MV4-11 [5]. The induction of apoptosis entry in the assay on OCI-AML-2 [4] was “only a modest induction of apoptosis”. Moreover, the IC50 is more than 10000 nM on PIK3C2A; more than 10000 nM at PIK3C2B; 111 nM at PI3Kβ; 64 nM on PI3Kα; more than 10000 nM at PI4KA; 6 nM against PI3Kδ. The GI50 in the assay on NB4 was 1400 nM; in the assay with NOMO-1, 2300 nM; in the assay on MV4-11 [6] it was 780 nM; in the assay with MV4-11 [6] (Homo sapiens, MV4-11) it was less than 1000 nM; in the assay with MOLM-14, 510 nM; with MOLM-14 (Homo sapiens, MOLM-14), less than 1000 nM. The “effect on pERK” value with pERK in MEC-2 cells is on record as “significantly inhibited”.
